The results in this text go back to patent US20190256509A1, “HISTONE DEMETHYLASE INHIBITORS” (CHRYSALIS, INC., priority 2016, published 2019).

This test concerns the target T1, KDM5B enzyme (Homo sapiens, UniProt Q9UGL1).
T1 construct: Reaction Biology Corp (named for the assay, not expressly for the enzyme)
In words: KDM5B HTRF (TR-FRET) demethylase inhibition assay. The conditions noted are these: 1.2 nM KDM5B, 30 nM Biotin-H3K4Me3 1-21 substrate, 10 point dose-response. The format is biochemical. The procedure:
Ten point dose-response curves for the compounds of Examples 1-135 were determined using a homogeneous time resolved fluorescence (HTRF) assay (Reaction Biology Corp, Malvern, Pa.). This assay combines fluorescence resonance energy transfer (FRET) with time resolve (TR) measurements (TR-FRET). The KDM5B α-ketoglutarate-dependent demethylase activity is calculated by measuring demethylation of a biotin labeled histone tri-methylated H3K4 substrate using an europium-cryptate (Eu)-labeled antibody donor specific for dimethylated histone H3K4 and a Streptavidin-XL665 acceptor that binds to the biotin group of substrate, and detecting FRET by exciting the reaction mixture at 320 nm and reading dual emissions at 615 nm and 665 nm.
Briefly, compounds disclosed herein were solubilized in DMSO and a series of 10, three-fold serial dilutions were made for each compound in 100% DMSO. The initial starting concentration for the serial dilutions of each compound was 10 μM or 100 μM. Control samples lacking compound, KDM5B enzyme or various reaction components also were prepared and processed in parallel with compound test samples.
An aliquot of each serial dilution of test compound was added to a 384 well plate (Corning Cat #3572) containing 1.2 nM KDM5B enzyme suspended in 50 mM Hepes, pH7.5, 50 mM NaCl, 0.01% Tween 20, 0.1% BSA, and 1% DMSO (final concentrations) in a 10 microliter reaction volume using a LABCYTE ECHO liquid handler. The samples were mixed, subjected to centrifugation and the plate was pre-incubated at room temperature for 15 minutes (min), to which 30 nM Biotin-H3K4Me3 1-21 substrate (Anaspec, Freemont Calif., Cat #64192), 20 μM Fe(II) and 20 μM α-ketoglutarate co-factors, and 100 μM Ascorbate were added to initiate the enzymatic reaction. The reaction mixture was incubated at room temperature for 45 minutes. A 10 μl aliquot of a detection mixture of Eu-labeled anti-histone H3K4Me2 antibody (CisBIO, Bedford Mass., Cat #610AXLB) and Streptavidin-XL665 (CisBIO, Bedford Mass., Cat #610 SAXLB) in 200 mM potassium fluoride and 10 mM EDTA was added and kinetic measurements were read at 5 minute intervals for a period of 30 minutes using an Envision Multiplate Reader (PerkinElmer Model 2102; excitation at 320 nm and emission reads at 615 nm and 665 nm). The IC50 value for each compound was determined from the 665/615 ratio obtained for each 10 point dose-response curve using GraphPad Prism 4 software with a sigmodial dose response.
For orientation: TR-FRET usually uses a lanthanide donor and a delayed reading to cut background.

T1 sequence (Q9UGL1 whole entry): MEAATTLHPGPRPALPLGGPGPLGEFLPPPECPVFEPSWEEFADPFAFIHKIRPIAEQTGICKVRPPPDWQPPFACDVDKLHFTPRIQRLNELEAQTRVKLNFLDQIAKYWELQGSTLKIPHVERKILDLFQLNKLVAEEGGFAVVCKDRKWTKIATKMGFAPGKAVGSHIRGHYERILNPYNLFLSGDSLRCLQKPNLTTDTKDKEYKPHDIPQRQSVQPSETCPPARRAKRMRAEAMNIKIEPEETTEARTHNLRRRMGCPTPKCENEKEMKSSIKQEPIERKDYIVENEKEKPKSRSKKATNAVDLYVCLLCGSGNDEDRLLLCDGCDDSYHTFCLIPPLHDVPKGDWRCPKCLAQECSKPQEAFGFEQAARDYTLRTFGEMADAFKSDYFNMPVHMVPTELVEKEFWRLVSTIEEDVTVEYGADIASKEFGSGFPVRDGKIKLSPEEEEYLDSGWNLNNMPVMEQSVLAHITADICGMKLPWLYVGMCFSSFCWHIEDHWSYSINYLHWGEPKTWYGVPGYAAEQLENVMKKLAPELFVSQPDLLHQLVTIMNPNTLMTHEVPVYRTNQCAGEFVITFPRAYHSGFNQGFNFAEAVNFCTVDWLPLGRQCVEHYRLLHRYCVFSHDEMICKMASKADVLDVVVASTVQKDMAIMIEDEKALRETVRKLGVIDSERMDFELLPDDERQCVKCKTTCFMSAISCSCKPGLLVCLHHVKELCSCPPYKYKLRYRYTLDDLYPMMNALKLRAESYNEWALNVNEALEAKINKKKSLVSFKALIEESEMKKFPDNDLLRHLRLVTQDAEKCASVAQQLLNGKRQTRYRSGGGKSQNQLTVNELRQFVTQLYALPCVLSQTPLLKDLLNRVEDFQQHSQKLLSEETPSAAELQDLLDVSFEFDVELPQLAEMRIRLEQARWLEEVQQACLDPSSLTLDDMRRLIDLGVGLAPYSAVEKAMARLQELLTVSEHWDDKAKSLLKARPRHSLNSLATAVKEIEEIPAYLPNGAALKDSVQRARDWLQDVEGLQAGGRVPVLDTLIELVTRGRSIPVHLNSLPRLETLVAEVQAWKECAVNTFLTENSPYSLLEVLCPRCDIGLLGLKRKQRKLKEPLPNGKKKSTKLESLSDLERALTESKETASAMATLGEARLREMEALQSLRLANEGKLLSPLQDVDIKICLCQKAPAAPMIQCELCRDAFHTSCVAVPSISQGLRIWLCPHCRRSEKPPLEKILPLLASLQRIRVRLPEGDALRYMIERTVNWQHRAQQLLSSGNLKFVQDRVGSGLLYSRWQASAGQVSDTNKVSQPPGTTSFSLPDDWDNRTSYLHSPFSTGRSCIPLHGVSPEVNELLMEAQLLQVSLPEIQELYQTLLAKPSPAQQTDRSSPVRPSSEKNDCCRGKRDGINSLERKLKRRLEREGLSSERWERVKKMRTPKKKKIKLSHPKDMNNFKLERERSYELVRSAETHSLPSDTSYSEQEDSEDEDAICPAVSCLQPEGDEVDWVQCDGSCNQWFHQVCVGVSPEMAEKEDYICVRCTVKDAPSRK

`COc1ccc(CNc2ccc3nccn3c2C(=O)O)c(OC)c1` [Example 1]: the IC50 (usually the midpoint of a concentration-inhibition curve) was at most 0.5 µM.
Molecule `O=C(O)c1c(NCc2ccccc2C(F)(F)F)ccc2nccn12` [Example 2] displayed a half-inhibitory concentration (IC50) of 0.5 to 1 µM.
`O=C(O)c1c(NCc2ccc(Cl)c(C(F)(F)F)c2)ccc2nccn12` [Example 3] gave an IC50 of 0.5 to 1 µM.
The figure for `O=C(O)c1c(NCc2cccc(Br)c2)ccc2nccn12` [Example 4] is at most 0.5 µM.
The molecule `O=C(O)c1c(NCc2cc(C(F)(F)F)ccc2Cl)ccc2nccn12` [Example 5] returned a concentration for half-maximal inhibition (IC50) of over 1 µM.
`O=C(O)c1c(NCc2cc(C(F)(F)F)cc(C(F)(F)F)c2)ccc2nccn12` [Example 6] returned an IC50 of over 1 µM.
`O=C(O)c1c(NCc2ccc(-c3ccccc3)cc2)ccc2nccn12` [Example 7] came in with an IC50 of over 1 µM.
As for `COc1cc(Cl)ccc1CNc1ccc2nccn2c1C(=O)O` [Example 8], the IC50 was at most 0.5 µM.
Consider `O=C(O)c1c(NCc2cccc(Cl)c2Cl)ccc2nccn12` [Example 9], for which the half-inhibitory concentration (IC50) is over 1 µM.
Consider `O=C(O)c1c(NCc2c(Cl)cccc2Cl)ccc2nccn12` [Example 10], for which the IC50 was over 1 µM.
The figure for `COc1ccc(F)c(CNc2ccc3nccn3c2C(=O)O)c1F` [Example 11] is over 1 µM; for `O=C(O)c1c(NCc2ccccc2OC(F)F)ccc2nccn12` [Example 12] it is 0.5 to 1 µM; for `O=C(O)c1c(NCc2ccc(F)cc2Cl)ccc2nccn12` [Example 13] it is at most 0.5 µM.
On to `Cc1cccc(Cl)c1CNc1ccc2nccn2c1C(=O)O` [Example 14], for which the half-inhibitory concentration (IC50) was over 1 µM.
In the case of `O=C(O)c1c(NCc2ccccc2Cl)ccc2nccn12` [Example 15] it was 0.5 to 1 µM; in that of `O=C(O)c1c(NCc2cccc(C(F)(F)F)c2F)ccc2nccn12` [Example 16], over 1 µM; in that of `COc1ccccc1CNc1ccc2nccn2c1C(=O)O` [Example 17], over 1 µM.
The figure for `O=C(O)c1c(NCc2cc(Cl)cc(Cl)c2)ccc2nccn12` [Example 18] is over 1 µM.
The molecule `O=C(O)c1c(NCc2cccc(OC(F)F)c2)ccc2nccn12` [Example 19] displayed a concentration for half-maximal inhibition (IC50) of over 1 µM.
On to `Cc1c(F)cccc1CNc1ccc2nccn2c1C(=O)O` [Example 20], for which the 50% inhibitory concentration (IC50) is over 1 µM.
The molecule `CN1CCN(c2ccc(CNc3ccc4nccn4c3C(=O)O)cc2)CC1` [Example 21] came in with a half-inhibitory concentration (IC50) of at most 0.5 µM.
`O=C(O)c1c(NCc2ccc(OC(F)F)cc2)ccc2nccn12` [Example 22] came in with a half-maximal inhibitory concentration (IC50) of over 1 µM.
Take `O=C(O)c1c(NCc2ccc(F)cc2)ccc2nccn12` [Example 23]: the IC50 is at most 0.5 µM.
In the case of `COc1ccc(CNc2ccc3nccn3c2C(=O)O)cc1` [Example 24], the half-inhibitory concentration (IC50) is over 1 µM.
In turn, `CC(C)(C)c1ccc(CNc2ccc3nccn3c2C(=O)O)cc1` [Example 25] displayed an IC50 of over 1 µM.
The figure for `Cc1ccc(Cl)cc1CNc1ccc2nccn2c1C(=O)O` [Example 26] is 0.5 to 1 µM; for `O=C(O)c1c(NCc2ccc(N3CCCCC3)cc2)ccc2nccn12` [Example 27] it is over 1 µM; for `CC(C)Oc1ccc(CNc2ccc3nccn3c2C(=O)O)cc1` [Example 28] it is over 1 µM.
In the case of `O=C(O)c1c(NCc2ccc3occc3c2)ccc2nccn12` [Example 29] it was 0.5 to 1 µM; in that of `O=C(O)c1c(NCc2ccc3sccc3c2)ccc2nccn12` [Example 30], over 1 µM; in that of `O=C(O)c1c(NCc2cccc3ccccc23)ccc2nccn12` [Example 31], over 1 µM.
Consider `CN1CCN(c2ccccc2CNc2ccc3nccn3c2C(=O)O)CC1` [Example 32], for which the concentration for half-maximal inhibition (IC50) was at most 0.5 µM.
The figure for `Cc1ccc(CNc2ccc3nccn3c2C(=O)O)c(F)c1F` [Example 33] is over 1 µM; for `O=C(O)c1c(NCc2cc(Cl)ccc2Cl)ccc2nccn12` [Example 34] it is 0.5 to 1 µM.
`Cc1ccc(F)c(CNc2ccc3nccn3c2C(=O)O)c1F` [Example 35] gave a half-maximal inhibitory concentration (IC50) of over 1 µM.
`O=C(O)c1c(NCc2c(F)cccc2F)ccc2nccn12` [Example 36]: the half-inhibitory concentration (IC50) was over 1 µM.
The figure for `O=C(O)c1c(NCc2ccccc2OC(F)(F)F)ccc2nccn12` [Example 37] is 0.5 to 1 µM.
In the case of `Cc1ccc(F)c(CNc2ccc3nccn3c2C(=O)O)c1Cl` [Example 38] it was over 1 µM; in that of `O=C(O)c1c(NCc2c(F)cccc2Cl)ccc2nccn12` [Example 39], over 1 µM; in that of `CCOc1ccccc1CNc1ccc2nccn2c1C(=O)O` [Example 40], over 1 µM.
For the molecule `O=C(O)c1c(NCc2ccc(C(F)(F)F)cc2F)ccc2nccn12` [Example 41], the half-maximal inhibitory concentration (IC50) was 0.5 to 1 µM.
Molecule `Cc1ccc(CNc2ccc3nccn3c2C(=O)O)c(F)c1` [Example 42] came in with an IC50 of over 1 µM.
In the case of `O=C(O)c1c(NCc2cc(C(F)(F)F)ccc2F)ccc2nccn12` [Example 43] it was over 1 µM; in that of `O=C(O)c1c(NCc2ccccc2-c2ccccc2)ccc2nccn12` [Example 44], 0.5 to 1 µM.
In the case of `O=C(O)c1c(NCc2ccc(F)c(F)c2)ccc2nccn12` [Example 45] it was at most 0.5 µM; in that of `COc1c(F)cc(CNc2ccc3nccn3c2C(=O)O)cc1F` [Example 46], over 1 µM; in that of `COc1ccc(CNc2ccc3nccn3c2C(=O)O)cc1Cl` [Example 47], 0.5 to 1 µM.
Regarding `O=C(O)c1c(NCc2ccc(C(F)(F)F)c(F)c2)ccc2nccn12` [Example 48], the half-maximal inhibitory concentration (IC50) was over 1 µM.
The figure for `Cc1ccc(CNc2ccc3nccn3c2C(=O)O)cc1F` [Example 49] is over 1 µM; for `O=C(O)c1c(NCc2cccc(F)c2)ccc2nccn12` [Example 50] it is over 1 µM; for `COc1ccc(CNc2ccc3nccn3c2C(=O)O)cc1O` [Example 51] it is at most 0.5 µM.
The figure for `O=C(O)c1c(NCc2cccc(-c3ccccc3)c2)ccc2nccn12` [Example 52] is over 1 µM; for `O=C(O)c1c(NCc2ccc(-c3cccs3)cc2)ccc2nccn12` [Example 53] it is over 1 µM; for `O=C(O)c1c(NCc2ccc(Oc3ccc(F)cc3)cc2)ccc2nccn12` [Example 54] it is over 1 µM.
The figure for `O=C(O)c1c(NCc2ccc(C(F)(F)F)cc2)ccc2nccn12` [Example 55] is 0.5 to 1 µM.
For `O=C(O)c1c(NCc2ccc(Cl)cc2F)ccc2nccn12` [Example 56], the concentration for half-maximal inhibition (IC50) is over 1 µM.
In the case of `Cc1cc(Cl)ccc1CNc1ccc2nccn2c1C(=O)O` [Example 57] it was 0.5 to 1 µM; in that of `O=C(O)c1c(NCc2ccc(Cl)c(F)c2)ccc2nccn12` [Example 58], over 1 µM; in that of `N#Cc1ccc(CNc2ccc3nccn3c2C(=O)O)cc1` [Example 59], at most 0.5 µM.
In the case of `O=C(O)c1c(NCc2ccc(F)cc2C(F)(F)F)ccc2nccn12` [Example 60] it was at most 0.5 µM; in that of `Cc1cc(F)ccc1CNc1ccc2nccn2c1C(=O)O` [Example 61], 0.5 to 1 µM.
In the case of `O=C(O)c1c(NCc2ccc(F)c(C(F)(F)F)c2)ccc2nccn12` [Example 62] it was 0.5 to 1 µM; in that of `Cc1cc(CNc2ccc3nccn3c2C(=O)O)ccc1F` [Example 63], over 1 µM; in that of `O=C(O)c1c(NCc2ccc(N3CCOCC3)cc2)ccc2nccn12` [Example 64], over 1 µM.
As for `CCCCc1ccc(CNc2ccc3nccn3c2C(=O)O)cc1` [Example 65], the IC50 is over 1 µM.
The figure for `O=C(O)c1c(NCc2cc(Cl)ccc2F)ccc2nccn12` [Example 66] is over 1 µM.
With `O=C(O)c1c(NCc2cc(F)ccc2C(F)(F)F)ccc2nccn12` [Example 67], the half-inhibitory concentration (IC50) is at most 0.5 µM.
In the case of `Cc1ccc(F)cc1CNc1ccc2nccn2c1C(=O)O` [Example 68] it was over 1 µM; in that of `Cc1ccc(C(F)(F)F)c(CNc2ccc3nccn3c2C(=O)O)c1` [Example 69], over 1 µM.
For `Cc1ccc(Cl)c(CNc2ccc3nccn3c2C(=O)O)c1F` [Example 70], the IC50 is over 1 µM.
`O=C(O)c1c(NCc2c(F)cc(F)cc2F)ccc2nccn12` [Example 71] returned a concentration for half-maximal inhibition (IC50) of 0.5 to 1 µM.
The figure for `O=C(O)c1c(NCc2ccc(Cl)cc2Cl)ccc2nccn12` [Example 72] is 0.5 to 1 µM.
In turn, `O=C(O)c1c(NCc2cc(F)cc(F)c2)ccc2nccn12` [Example 73] yielded a 50% inhibitory concentration (IC50) of over 1 µM.
On to `O=C(O)c1c(NCc2ccc(Cl)cc2)ccc2nccn12` [Example 74], for which the half-inhibitory concentration (IC50) was over 1 µM.
